Laboratory results taken from patent US8377983B2, “Benzazole derivatives, compositions, and methods of use as aurora kinase inhibitors” (TransTech Pharma, Inc., priority 2006, dated 2013).

Assays:
BT-474 breast xenograft = experiment: BT-474 xenograft model, Example 88 alone and in combination with trastuzumab; format: in vivo, athymic SCID mice; conditions: for Median Tumor Size: Example 88 30 mg/kg i.p. b.i.d. 3 days on, 2 days off, 5 cycles, trastuzumab 10 mg/kg i.p. twice weekly 4 weeks
Text: Mice-bearing sc tumors were randomized, and treatment groups consisted of 10 mice.

[1] = test system: human MiaPaCa-2 pancreatic xenografts; experiment: MiaPaCa-2 xenograft model, Example 88 alone and in combination with gemcitabine; format: in vivo, athymic mice; conditions: for Median Tumor Size: Example 88 10 mg/kg i.p. b.i.d. 10 days, gemcitabine 120 mg/kg i.p. q3d×4
Method: (§1) Compounds were dosed on the following schedules:
2) Gemcitabine was dosed 120 mg/kg, i.p., q3d×4 (days 1, 4, 7, 10).
Drug treatment started when mean tumor sizes reached approximately 120 mg (day 8). Mice-bearing sc tumors were randomized, and treatment groups consisted of 8 mice. The median tumor size for each group at various points in the study are listed below in Table B.

[2] = test system: human tumor xenografts derived from pancreas and breast tissues; experiment: Single agent antitumor activity in established human tumor xenografts; format: in vivo; conditions: established human tumor xenografts in athymic mice
Text: While the compounds of the present invention may be used as a single agent, they may also be used as part of a combination therapy.

[3] = test system: human MiaPaCa-2 pancreatic xenografts; experiment: MiaPaCa-2 xenograft model, Example 88 alone and in combination with erlotinib; format: in vivo, athymic mice; conditions: for Median Tumor Size: Example 88 10 mg/kg i.p. b.i.d. 10 days, erlotinib 50 mg/kg p.o. daily 14 days
Method: as §1
2) Erlotinib was dosed 50 mg/kg, p.o., daily for 14 days (days 1-14).
Mice-bearing sc tumors were randomized, and treatment groups consisted of 8 mice.

[4] = day 24, out of 10 mice, Table CC head: Example 88 10 mg/kg, Trastuzumab 10 mg/kg
[5] = day 8 of study (treatment start)
[6] = day 42, out of 8 mice, Example 88 10 mg/kg, gemcitabine 120 mg/kg
[7] = previous dose response studies in this model, 10 mg/kg

Compound: O=C(Nc1ccc2cn[nH]c2c1)c1cc2nc(Nc3ccccc3C(F)(F)F)[nH]c2cc1N1CCNCC1 [Example 88, 6-Piperazin-1-yl-2-(2-trifluoromethylphenylamino)-1H-benzimidazole-5-carboxylic acid (1H-indazol-6-yl)-amide]
- Median Tumor Size (BT-474 breast xenograft; day 4 of study): 120 mg
- Median Tumor Size (BT-474 breast xenograft; day 7 of study): 152 mg
- Median Tumor Size (BT-474 breast xenograft; day 10 of study): 153 mg
- Median Tumor Size (BT-474 breast xenograft; day 14 of study): 179 mg
- Median Tumor Size (BT-474 breast xenograft; day 17 of study): 149 mg
- Median Tumor Size (BT-474 breast xenograft; day 21 of study): 142 mg
- complete responders (CR) (BT-474 breast xenograft; [4]): 0/10
- partial responders (PR) (BT-474 breast xenograft; [4]): 0/10
- Median Tumor Size (BT-474 breast xenograft; day 24 of study): 138 mg
- Median Tumor Size (BT-474 breast xenograft; day 28 of study): 104 mg
- Median Tumor Size [1, 5]: 120 mg
- Median Tumor Size ([1]; day 10 of study): 162 mg
- Median Tumor Size ([1]; day 13 of study): 170 mg
- Median Tumor Size ([1]; day 16 of study): 170 mg
- Median Tumor Size ([1]; day 20 of study): 221 mg
- Median Tumor Size ([1]; day 23 of study): 209 mg
- Median Tumor Size ([1]; day 27 of study): 368 mg
- Median Tumor Size ([1]; day 30 of study): 486 mg
- Median Tumor Size ([1]; day 34 of study): 817 mg
- Median Tumor Size ([1]; day 37 of study): 1055 mg
- complete responders (CR, 100% reduction in tumor size) [1, 6]: 0/8
- partial responders (PR, greater than 50% reduction in tumor size) [1, 6]: 0/8
- Median Tumor Size ([1]; day 42 of study): 1629 mg
- effectiveness of dose for inhibition of tumor growth [1, 7]: moderately effective dose
- antitumor activity as a single agent [2]: demonstrated antitumor activity
- Median Tumor Size [3, 5]: 120 mg
- Median Tumor Size ([3]; day 10 of study): 162 mg
- Median Tumor Size ([3]; day 13 of study): 170 mg
- Median Tumor Size ([3]; day 16 of study): 170 mg
- Median Tumor Size ([3]; day 20 of study): 221 mg
- Median Tumor Size ([3]; day 23 of study): 209 mg
- Median Tumor Size ([3]; day 27 of study): 368 mg
- Median Tumor Size ([3]; day 30 of study): 486 mg
- Median Tumor Size ([3]; day 34 of study): 817 mg
- Median Tumor Size ([3]; day 37 of study): 1055 mg
- Median Tumor Size ([3]; day 42 of study): 1629 mg
- effectiveness of dose for inhibition of tumor growth [3, 7]: moderately effective dose
